In US20100179225A1, “POI Prevention” (CYTOKINE PHARMASCIENCES, INC., priority 2008, published 2010):

Assays:
[1] = system: circular smooth muscle of the graft; assay: Mechanical in vitro activity of mid-jejunum graft circular smooth muscle (bethanechol); assay type: in vivo, Lewis rats; details: 1 mg/kg i.v. 90 min before; 18 h reperfusion; 100 μmol/L bethanechol
Protocol: (§1) Syngeneic orthotopic small intestinal transplantation was performed in Lewis rats as previously described (Schwarz N T, Nakao A, Nalesnik M A, Kalff J C, Murase N, Bauer A J. Protective effects of ex vivo graft radiation and tacrolimus on syngeneic transplanted rat small bowel motility. Surgery 2002; 131: 413-423). […] Then the graft vascular bed was perfused with chilled UW solution (University of Wisconcin) and the intestinal lumen was irrigated with 50 ml cold 0.9% NaCl solution containing […]. neomycin sulfate (Uro Nebacetin N, Nycomed, Germany). The graft was stored in cold UW solution during the preparation of the recipient. […]
Mechanical in vitro activity of the mid-jejunum was evaluated at 18 hours after reperfusion using smooth muscle strips of the circular muscularis as described previously (N=8 each) (Kalff J C, Schraut W H, Simmons R L, Bauer A J. Surgical manipulation of the gut elicits an intestinal muscularis inflammatory response resulting in postsurgical ileus. Ann Surg 1998; 228: 652-663). […] The contractile response was analyzed with the ADI Chart© software and the contractions were calculated as grams per square millimeter per second by conversion of the weight and length of the strip to square millimeters of tissue.

ED1 positive cells = assay: ED1 positive cell (monocyte/macrophage) infiltration into graft muscularis after small intestinal transplantation; assay type: in vivo, Lewis rats; details: 1 mg/kg i.v.; 18 h after reperfusion
Protocol: as §1, with “recipient. An end-to-side anastomosis between the graft aorta and the recipient infra-renal aorta, and between the graft vein and recipient vena cava, was performed.” for “recipient.”
ED1 and MPO+-cells were counted under a microscope (TE-2000, Nikon, Duesseldorf, Germany) in 5 randomly chosen areas in each specimen.
In order to evaluate cell populations which are known to be associated with inflammation processes and to initiate immunological processes within the muscularis, leukocyte infiltrates were evaluated after 18 h by MPO histochemistry (polymorphonuclear neutrophils) and ED1 immunohistochemistry (monocytes and passenger macrophages). […]

swine = assay: Intestinal anastomotic healing in swine (bursting pressure, hydroxyproline content); assay type: in vivo; details: 1 mg/kg p.o. 14 hours and 3 hours, or once 2 hours (iv group), before operation, postoperative day 6
Protocol: Swine were fed with 1 mg/kg CPSI-2364 or placebo (2.5% mannitol) 14 hours and 3 hours before operation. In the iv group, 1 mg/kg CPSI 2364 was fed once 2 hours before operation. After premedication animals were intubated and a central venous catheter was applied. A laparotomy was performed under sterile conditions.

anastomotic bursting pressure levels vs placebo (swine): No differences were observed
anastomotic hydroxyproline content vs placebo (swine): No differences were observed
SMILES: C/C(=N\N=C(N)N)c1cc(NC(=O)CCCCCCCCC(=O)Nc2cc(/C(C)=N/N=C(N)N)cc(/C(C)=N/N=C(N)N)c2)cc(/C(C)=N/N=C(N)N)c1.CS(=O)(=O)O.CS(=O)(=O)O.CS(=O)(=O)O.CS(=O)(=O)O [CPSI-2364]
circular smooth muscle contractile force [1]: 3.63 grams/mm2/sec
increase in circular smooth muscle contractile activity in comparison to the vehicle grafts [1]: 96%
ED1 positive cells in muscularis (ED1 positive cells): 54.8 cells/field of view (magnification 200×)
